In paper PMC4704022, “Insights on FXR selective modulation. Speculation on bile acid chemical space in the discovery of potent and selective agonists” (Scientific Reports, 2016):
Entries after “also recorded” stand apart in the source; their conditions may differ.

Legend:
[1] = target: T1, GPBAR1 (Homo sapiens, UniProt Q8TDU6); assay: GPBAR1 agonism, CRE-luciferase transactivation assay in transfected HEK-293T cells; type: cell-based; conditions: HEK-293T, compounds at 10 μM; TLCA 10 μM as positive control
T1 construct: expressed in transfected cells; host or cells: HEK-293T
T1 sequence (Q8TDU6 1-330): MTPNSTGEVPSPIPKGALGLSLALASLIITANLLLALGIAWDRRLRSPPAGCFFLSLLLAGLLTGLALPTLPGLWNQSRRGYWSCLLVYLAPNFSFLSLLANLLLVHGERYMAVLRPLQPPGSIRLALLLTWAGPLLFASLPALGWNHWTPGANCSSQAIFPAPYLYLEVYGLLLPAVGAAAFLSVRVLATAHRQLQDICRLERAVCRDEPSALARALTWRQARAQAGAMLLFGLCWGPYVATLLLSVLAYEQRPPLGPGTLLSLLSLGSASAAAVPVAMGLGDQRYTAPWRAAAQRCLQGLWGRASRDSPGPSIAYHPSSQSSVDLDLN
Method: (A) HEK-293T cells were co-transfected with GPBAR1 and a reporter gene containing a cAMP responsive element in front of the luciferase gene. Twenty-four hour post transfection cells were stimulated with 7–21 (10 μM). Luciferase activity served as a measure of the rise in intracellular cAMP following activation of GPBAR1. […] Twenty-four hour post transfection cells were stimulated with increasing concentrations of each agent: range from 100 nM to 50 μM. Results are expressed as mean ± standard error.
(§1) To investigate GPBAR1 activation, HEK-293T cells were transiently transfected with Fugene HD reagent (Promega) using the following vectors: pCMVSPORT6-human GPBAR1, pGL4.29 (Promega), a reporter vector containing a cAMP response element (CRE) cloned upstream to the luciferase reporter gene luc2P and pGL4.70. […] Dose-response curves were performed in HEK-293T cells transfected as described above and treated with increasing concentrations of 9 and 21 (from 100 nM to 50 μM). […] At 18 h post stimulations, cellular lysate was assayed for luciferase and renilla activities using the Dual-Luciferase Reporter assay system (E1980, Promega). Luminescence was measured using Glomax 20/20 luminometer (Promega). Luciferase activities were normalized with Renilla activities.

[2] = test system: FXR target genes (OSTα, SHP, BSEP); assay: In vivo effect on FXR target genes in mouse liver (Real-Time PCR); parameters: species or system C57BL6 mice; conditions: mice, 15 mg/kg ip, 6 h, versus control mice
Method: Figure 10 In vivo effect of 10 on FXR target genes. C57BL6 mice were administered with 10 (15 mg/Kg) for 6 h. After treatment liver were removed and the relative mRNA expression of OSTα, SHP and BSEP was assayed by quantitative Real-Time PCR. *p < 0.05 versus control mice.
C57BL6 mice were administered with compound 10 (15 mg/kg, ip). At 6 h post-treatment, livers and blood were collected.
Total RNA was extracted using the TRIzol reagent (Life Technologies). First, 1 μg of RNA was purified of the genomic DNA by DNase I treatment (Life Technologies) and random reverse-transcribed with Superscript II (Life Technologies) in a 20 μL reaction volume. Then 10 ng of cDNA was amplified in a final volume of 20 μL in a mix containing 200 nM of each sense/antisense primers and 10 μL of 2× SYBR Select Master mix (Life Technologies). RT-PCR reactions were performed in duplicate and the thermal cycling conditions were: 2 min at 95 °C, followed by 40 cycles of 95 °C for 20 s, 60 °C for 30 s on Step One Plus Instrument (ABI). The relative mRNA expression was calculated and expressed as 2^−(ΔΔCt). Sense and antisense primer sequences were the following: mouse GAPDH, […] and […]; mOSTα, […] and […]; mBSEP, […] and […]; mSHP, […] and […].

[3] = target: T1, GPBAR1; assay: GPBAR1 antagonism, transactivation assay in HEK-293T cells stimulated with TLCA; type: cell-based
Description: Figure 9 Antagonism on GPBAR1 by transactivation assay. (A) HEK-293T cells were transfected as described in Fig. 8. […] Results are expressed as mean ± standard error.
as §1

CC[C@H]1[C@@H](O)[C@@H]2[C@H](CC[C@]3(C)[C@@H]([C@H](C)CCC(=O)O)CC[C@@H]23)[C@@]2(C)CCCC[C@@H]12 [compound 10, 6α-ethyl-7α-hydroxy-5β-cholan-24-oic acid]
GPBAR1 agonism (in words) [1]: inactive towards GPBAR1 in agonistic mode; also recorded: devoid of any activity toward GPBAR1 in agonistic mode | Relative mRNA expression of BSEP in liver [2]: significantly up-regulated; also recorded: increased the expression | Relative mRNA expression of OSTα in liver [2]: significantly up-regulated; also recorded: increased the expression | Relative mRNA expression of SHP in liver [2]: significantly up-regulated; also recorded: increased the expression | GPBAR1 antagonism (in words) ([3]; HEK-293T, 10 μM TLCA in combination with 25 μM compound): showed inhibitory activity against GPBAR1 transactivation induced by TLCA | IC50 ([3]; read-out: IC50, antagonism of TLCA-induced GPBAR1 transactivation): 11 µM
